{
  "source": "patent US20240393292A1",
  "about": "“ALLERGY ANTIGEN AND EPITOPE THEREOF” (HOYU CO., LTD., priority 2019, published 2024)",
  "test_system": "IgE antibodies from patients",
  "test": "Wheat epitope mapping (2): overlapping 10-amino-acid peptide fragments shifted by one amino acid",
  "assay_type": "binding, human",
  "conditions": "partial sequence",
  "method_in_brief": "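Cellulose-bound 10-mer peptides offset by one residue were probed with patient serum IgE and detected by chemiluminescence. Secondary-antibody-only signals were subtracted per peptide. Residual binding was expressed as % of the parent overlapping peptide, scored as none (<30%), poor (30–<50%), somewhat poor (50–<70%) or retained (≥70%).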",
  "key": {"[1]": {"conditions": "serum of patient P51 (child, general immediate type allergy to wheat)"}, "[2]": {"conditions": "serum of patient P53 (child, general immediate type allergy to wheat)"}, "[3]": {"conditions": "serum of patient G2 (adult, general immediate type allergy to wheat)"}, "[4]": {"conditions": "serum of patient G7 (adult, general immediate type allergy to wheat)"}},
  "data": [
    {"substance": "2502 (SSQVSFQPSQ; REGION 1..10: note = epitope) [compound 2502]", "values": [
      {"measurement": "Epitope sequence binding to IgE antibody, rank of the sequence", "setting": "serum of patient P15 (WDEIA)", "value": "Preferably"}
    ]},
    {"substance": "2503 (SSQVSF; REGION 1..6: note = epitope) [compound 2503]", "values": [
      {"measurement": "Epitope sequence binding to IgE antibody, rank of the sequence", "setting": "serum of patient P15 (WDEIA)", "value": "Key"}
    ]},
    {"substance": "2504 (SSQVSF; REGION 1..6: note = epitope) [compound 2504]", "values": [
      {"measurement": "Epitope sequence binding to IgE antibody, rank of the sequence", "setting": "serum of patient P16 (WDEIA)", "value": "Preferably"}
    ]},
    {"substance": "2505 (SQVSF; REGION 1..5: note = epitope) [compound 2505]", "values": [
      {"measurement": "Epitope sequence binding to IgE antibody, rank of the sequence", "setting": "serum of patient P16 (WDEIA)", "value": "Key"}
    ]},
    {"substance": "2506 (SSQVSFQPSQ; REGION 1..10: note = epitope) [compound 2506]", "values": [
      {"measurement": "Epitope sequence binding to IgE antibody, rank of the sequence", "setting": "serum of patient P20 (WDEIA)", "value": "Preferably"}
    ]},
    {"substance": "2507 (SQVSF; REGION 1..5: note = epitope) [compound 2507]", "values": [
      {"measurement": "Epitope sequence binding to IgE antibody, rank of the sequence", "setting": "serum of patient P20 (WDEIA)", "value": "Key"}
    ]},
    {"substance": "2508 (SQVSF; REGION 1..5: note = epitope) [compound 2508]", "values": [
      {"measurement": "Epitope sequence binding to IgE antibody, rank of the sequence", "setting": "serum of patient P22 (WDEIA)", "value": "Key"}
    ]},
    {"substance": "2509 (QVSF; REGION 1..4: note = epitope) [compound 2509]", "values": [
      {"measurement": "Epitope sequence binding to IgE antibody, rank of the sequence", "setting": "serum of patient P29 (WDEIA)", "value": "Key"}
    ]},
    {"substance": "2510 (PSQLNPQ; REGION 1..7: note = epitope) [compound 2510]", "values": [
      {"measurement": "Epitope sequence binding to IgE antibody, rank of the sequence", "setting": "serum of patient P29 (WDEIA)", "value": "Key"}
    ]},
    {"substance": "2512 (SQVSF; REGION 1..5: note = epitope) [compound 2512]", "values": [
      {"measurement": "Epitope sequence binding to IgE antibody, rank of the sequence", "setting": "serum of patient P36 (WDEIA)", "value": "Key"}
    ]},
    {"substance": "2514 (SFQPSQLNPQ; REGION 1..10: note = epitope) [compound 2514]", "values": [
      {"measurement": "Epitope sequence binding to IgE antibody, rank of the sequence", "setting": "[1]", "value": "Preferably"}
    ]},
    {"substance": "2515 (SFQPSQ; REGION 1..6: note = epitope) [compound 2515]", "values": [
      {"measurement": "Epitope sequence binding to IgE antibody, rank of the sequence", "setting": "[1]", "value": "Key"}
    ]},
    {"substance": "2516 (SSQVSF; REGION 1..6: note = epitope) [compound 2516]", "values": [
      {"measurement": "Epitope sequence binding to IgE antibody, rank of the sequence", "setting": "[2]", "value": "Key"}
    ]},
    {"substance": "2518 (PSQLNPQ; REGION 1..7: note = epitope) [compound 2518]", "values": [
      {"measurement": "Epitope sequence binding to IgE antibody, rank of the sequence", "setting": "[2]", "value": "Preferably"}
    ]},
    {"substance": "2519 (PSQLN; REGION 1..5: note = epitope) [compound 2519]", "values": [
      {"measurement": "Epitope sequence binding to IgE antibody, rank of the sequence", "setting": "[2]", "value": "Key"}
    ]},
    {"substance": "2523 (PSQLNPQA; REGION 1..8: note = epitope) [compound 2523]", "values": [
      {"measurement": "Epitope sequence binding to IgE antibody, rank of the sequence", "setting": "serum of patient P56 (child, general immediate type allergy to wheat)", "value": "Further preferably"}
    ]},
    {"substance": "2528 (SSQVSF; REGION 1..6: note = epitope) [compound 2528]", "values": [
      {"measurement": "Epitope sequence binding to IgE antibody, rank of the sequence", "setting": "[3]", "value": "Key"}
    ]},
    {"substance": "2530 (FQPSQLNP; REGION 1..8: note = epitope) [compound 2530]", "values": [
      {"measurement": "Epitope sequence binding to IgE antibody, rank of the sequence", "setting": "[3]", "value": "Preferably"}
    ]},
    {"substance": "2531 (FQPSQLN; REGION 1..7: note = epitope) [compound 2531]", "values": [
      {"measurement": "Epitope sequence binding to IgE antibody, rank of the sequence", "setting": "[3]", "value": "Key"}
    ]},
    {"substance": "2541 (SSQVSFQPSQ; REGION 1..10: note = epitope) [compound 2541]", "values": [
      {"measurement": "Epitope sequence binding to IgE antibody, rank of the sequence", "setting": "[4]", "value": "Preferably"}
    ]},
    {"substance": "2542 (SSQVSF; REGION 1..6: note = epitope) [compound 2542]", "values": [
      {"measurement": "Epitope sequence binding to IgE antibody, rank of the sequence", "setting": "[4]", "value": "Key"}
    ]},
    {"substance": "2543 (VSFQPSQLN; REGION 1..9: note = epitope) [compound 2543]", "values": [
      {"measurement": "Epitope sequence binding to IgE antibody, rank of the sequence", "setting": "[4]", "value": "Preferably"}
    ]},
    {"substance": "2547 (QSTYQLVQQL; REGION 1..10: note = epitope) [compound 2547]", "values": [
      {"measurement": "Epitope sequence binding to IgE antibody, rank of the sequence", "setting": "serum of patient P2 (WDEIA)", "value": "Preferably"}
    ]},
    {"substance": "2548 (QSTY; REGION 1..4: note = epitope) [compound 2548]", "values": [
      {"measurement": "Epitope sequence binding to IgE antibody, rank of the sequence", "setting": "serum of patient P2 (WDEIA)", "value": "Key"}
    ]},
    {"substance": "2549 (QLVQQLCC; REGION 1..8: note = epitope) [compound 2549]", "values": [
      {"measurement": "Epitope sequence binding to IgE antibody, rank of the sequence", "setting": "serum of patient P2 (WDEIA)", "value": "Key"}
    ]},
    {"substance": "2552 (QLVQQLCC; REGION 1..8: note = epitope) [compound 2552]", "values": [
      {"measurement": "Epitope sequence binding to IgE antibody, rank of the sequence", "setting": "serum of patient P7 (WDEIA)", "value": "Preferably"}
    ]},
    {"substance": "2553 (QLVQ; REGION 1..4: note = epitope) [compound 2553]", "values": [
      {"measurement": "Epitope sequence binding to IgE antibody, rank of the sequence", "setting": "serum of patient P7 (WDEIA)", "value": "Key"}
    ]},
    {"substance": "2554 (LQQSTYQLVQ; REGION 1..10: note = epitope) [compound 2554]", "values": [
      {"measurement": "Epitope sequence binding to IgE antibody, rank of the sequence", "setting": "serum of patient P20 (WDEIA)", "value": "Key"}
    ]}
  ]
}
